Columns and labels:
Rat M5 mAChR = biological target: T1, Rat M5 mAChR (Rattus norvegicus, UniProt P08911); experiment: calcium mobilization assay in CHO cells, incl. Schild analysis; type: cell-based
T1 construct: host or cells: CHO (CHO-K1) cells
T1 sequence (P08911 1-531): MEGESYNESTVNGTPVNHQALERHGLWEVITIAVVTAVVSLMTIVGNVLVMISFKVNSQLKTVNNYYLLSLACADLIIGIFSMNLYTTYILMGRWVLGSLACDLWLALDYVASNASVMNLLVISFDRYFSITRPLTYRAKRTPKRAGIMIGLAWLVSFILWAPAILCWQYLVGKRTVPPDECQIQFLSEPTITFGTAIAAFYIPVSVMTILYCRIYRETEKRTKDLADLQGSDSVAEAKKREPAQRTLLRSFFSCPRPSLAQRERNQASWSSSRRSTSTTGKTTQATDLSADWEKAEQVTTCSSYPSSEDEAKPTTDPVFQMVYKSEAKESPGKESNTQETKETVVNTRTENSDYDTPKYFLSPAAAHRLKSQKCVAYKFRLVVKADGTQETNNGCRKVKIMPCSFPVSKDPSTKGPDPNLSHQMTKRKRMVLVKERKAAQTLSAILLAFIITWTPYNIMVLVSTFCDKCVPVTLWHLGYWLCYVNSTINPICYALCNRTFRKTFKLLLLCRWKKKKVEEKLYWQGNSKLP
Description: CHO cells expressing rM1, rM3 and rM5 were plated at 4 × 10^4 cells per well, whereas rM2 and rM4 were plated at 6 × 10^4 cells per well, in standard growth media (as described previously under “cell culture”) in 96-well plates 24 hours before assay and were incubated overnight at 37 °C in 5% CO2. […] Cells were incubated for 45 minutes (37 °C, 5% CO2) for dye loading. Fluo4-AM dye was removed, cells were washed and replaced with 40 μL of calcium assay buffer. AEME concentration-response curves were determined in single-add experiments. […] All compounds were dissolved in dimethyl sulfoxide (DMSO) and then in calcium assay buffer to obtain a final DMSO concentration of 0.3%. […] These values were fit using GraphPad Prism version 5.0 to determine EC50 values and Schild slope and pA2 in the Schild analyses.

Rat M2 mAChR = biological target: T2, Rat M2 mAChR (Rattus norvegicus, UniProt P10980); experiment: calcium mobilization assay in CHO cells (Gqi5); type: cell-based; conditions: rat M2, 100 μM AEME on ACh curve
T2 construct: host or cells: CHO (CHO-K1) cells
T2 sequence (P10980 1-466): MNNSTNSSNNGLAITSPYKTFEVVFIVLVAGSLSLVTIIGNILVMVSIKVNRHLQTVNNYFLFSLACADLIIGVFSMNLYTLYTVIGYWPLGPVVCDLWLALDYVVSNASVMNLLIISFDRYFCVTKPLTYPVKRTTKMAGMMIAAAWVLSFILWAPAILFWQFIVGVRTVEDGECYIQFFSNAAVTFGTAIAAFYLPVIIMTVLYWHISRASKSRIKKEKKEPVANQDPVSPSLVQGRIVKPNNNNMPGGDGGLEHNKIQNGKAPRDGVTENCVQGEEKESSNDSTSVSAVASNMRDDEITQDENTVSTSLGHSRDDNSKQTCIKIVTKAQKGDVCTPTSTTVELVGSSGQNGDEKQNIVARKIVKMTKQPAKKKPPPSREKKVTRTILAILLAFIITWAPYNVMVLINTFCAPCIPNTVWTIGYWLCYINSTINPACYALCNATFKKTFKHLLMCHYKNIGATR
Description: Chinese hamster ovary (CHO) cells individually and stably expressing individual rat mAChRs (rM1 to rM5 mAChRs) were purchased from the American Type Culture Collection (ATCC) and cultured according to ATCC recommendations. To generate stable rM2 and rM4 cell lines for use in calcium mobilization assays, rM2 and rM4-expressing cells were stably transfected with a chimeric G protein (Gqi5) using Lipofectamine 2000 (Invitrogen). rM2 and rM4 cells were grown in Ham’s F-12 medium containing 10% heat-inactivated fetal bovine serum (FBS), 2 mM GlutaMAX (Gibco®), 20 mM HEPES, 500 μg/mL G418 sulfate, 200 μg/mL hygromycin B and an antibiotic-antimycotic solution (Gibco®). rM1, rM3 and rM5 mAChR-CHO cells were grown in the same medium without hygromycin B[48]. CHO cells were cultured in a 150 mm-diameter cell culture-treated dishes (Corning®) at 37 °C and 5% CO2 until complete confluence.
CHO cells expressing rM1, rM3 and rM5 were plated at 4 × 10^4 cells per well, whereas rM2 and rM4 were plated at 6 × 10^4 cells per well, in standard growth media (as described previously under “cell culture”) in 96-well plates 24 hours before assay and were incubated overnight at 37 °C in 5% CO2. […] Cells were incubated for 45 minutes (37 °C, 5% CO2) for dye loading. […] AEME concentration-response curves were determined in single-add experiments. […]

[1] = rat M5, AEME 10^−6 to 10^−3.5 M vs acetylcholine

COC(=O)C1=CC[C@@H]2CC[C@H]1N2C [AEME, anhydroecgonine methyl ester]
mechanism of action (Rat M5 mAChR; rat M5, 100 μM AEME on ACh curve): antagonized the effects of ACh | Schild slope (Rat M5 mAChR; [1]): 0.95 ± 0.07 | pA2 (antagonist affinity, Schild analysis) (Rat M5 mAChR; [1]): 4.87 ± 0.10 | calcium increase (Rat M5 mAChR; rat M5, agonist mode): no calcium increase | mechanism of action (Rat M2 mAChR): antagonized the effects of ACh

— article PMC4667193 (Scientific Reports, 2015)
